From the OligoGym collection come the findings set out here.

Where “and” joins values, the source holds several entries; their conditions need not be identical. Identical values can stand only once. After the bases stand the sugars from the 5' end (letter, count) and the backbone: PS all phosphorothioate, else s phosphorothioate and o phosphodiester by linkage. Methylation of C is not given here. e = 2'-O-(2-methoxyethyl) (MOE); k = constrained ethyl (cEt); d = 2'-deoxy (DNA)

For the data set, the target named is SOD1. Particulars: ASO.

Consider “GTGAGGACCTGCACTGGTAC (sugars e5 d10 e5, linkages s1 o3 s11 o3 s1)”, for which the target mRNA inhibition is, setting by setting: (A431, 0.12 µM) 0%; (A431, 0.6 µM) 17%; (A431, 3 µM) 0%; (A431, 15 µM) 16%; (HepG2, 0.222 µM) 0%; (HepG2, 0.667 µM) 16%. Further, the target mRNA inhibition worked out at 70% (HepG2, 2 µM); 50% (HepG2, 3 µM); 35% (HepG2, 6 µM).
With “GTGATCATAAATCAGTT (sugars e2 k2 d9 k2 e2, PS)”, the target mRNA inhibition (HepG2, 5 µM) was 48%.
The sequence “GTGCCATACAGGGTTTT (sugars e3 k2 d7 k2 e3, PS)” gave a target mRNA inhibition (HepG2, 3 µM) of 7%.
Sequence “GTGTTTAATGTTTATCA (sugars e2 k2 d8 k2 e3, PS)” had a target mRNA inhibition (HepG2, 0.1875 µM) of 44%; a target mRNA inhibition (HepG2, 0.75 µM) of 71%; a target mRNA inhibition (HepG2, 3 µM) of 83%; a target mRNA inhibition (HepG2, 5 µM) of 86%; a target mRNA inhibition (HepG2, 12 µM) of 84%.
On the same counts, the results for “GTGTTTAATGTTTATCA (sugars e2 k2 d9 k2 e2, PS)” are 42%, 68%, 86%, 86% and 89%.
For “GTGTTTAATGTTTATCA (sugars e2 k2 d9 k2 e2, linkages s1 o3 s9 o1 s2)”, the target mRNA inhibition came out at 22% (A431, 0.12 µM); 57% (A431, 0.6 µM); 73% (A431, 3 µM); 84% (A431, 15 µM); 58% (HepG2, 0.222 µM); 68% (HepG2, 0.667 µM). Further, the target mRNA inhibition was 96% (HepG2, 2 µM) and 83% (HepG2, 6 µM).
Regarding “GTGTTTAATGTTTATCAG (sugars e5 d8 e5, linkages s1 o3 s9 o2 s2)”, the target mRNA inhibition was 1% (A431, 0.12 µM); 15% (A431, 0.6 µM); 36% (A431, 3 µM); 50% (A431, 15 µM); 20% (HepG2, 0.222 µM); 43% (HepG2, 0.667 µM). Moreover, the target mRNA inhibition turned out to be 56% (HepG2, 2 µM) and 81% (HepG2, 6 µM).
With “GTTTAATGTTTATCAG (sugars ekddddddddekekee, linkages s1 o1 s8 o3 s2)”, the target mRNA inhibition reads like this: (A431, 0.12 µM) 2%; (A431, 0.6 µM) 19%; (A431, 3 µM) 33%; (A431, 15 µM) 62%; (HepG2, 0.222 µM) 44%; (HepG2, 0.667 µM) 63%. In addition, the target mRNA inhibition reads like this: (HepG2, 2 µM) 82%; (HepG2, 6 µM) 94%.
As to “GTTTAATGTTTATCAGG (sugars e2 k2 d9 k2 e2, PS)”, the target mRNA inhibition is 67% (HepG2, 0.1875 µM); 84% (HepG2, 0.75 µM); 94% (HepG2, 3 µM); 92% (HepG2, 5 µM); 96% (HepG2, 12 µM).
Under “HepG2, 4 µM”, “GTTTATTGGGCGATCCC (sugars e2 k2 d8 k2 e3, PS)” showed a target mRNA inhibition of 54%.
Take “GTTTATTGGGCGATCCC (sugars e3 k2 d7 k2 e3, PS)”: the target mRNA inhibition (HepG2, 3 µM) was found to be 18%.
Turning to “GTTTTCTGGATAGAGGATTA (sugars e5 d10 e5, PS)”, the target mRNA inhibition (HepG2, 5 µM) is 28% and 39%.
For “TAAGATTACAGTGTTTA (sugars e3 k2 d7 k2 e3, PS)”, for the setting “HepG2, 3 µM”, the target mRNA inhibition was found to be 54%.
For “TAATGTTTATCAGGATA (sugars e2 k2 d8 k2 e3, PS)”, the target mRNA inhibition runs as follows: (HepG2, 0.1875 µM) 48%; (HepG2, 0.75 µM) 78%; (HepG2, 3 µM) 91%; (HepG2, 4 µM) 90%; (HepG2, 12 µM) 95%.
Regarding “TAATGTTTATCAGGATA (sugars e2 k2 d8 k2 e3, linkages s1 o2 s9 o2 s2)”, the target mRNA inhibition turned out to be 0% (A431, 0.12 µM); 38% (A431, 0.6 µM); 54% (A431, 3 µM); 68% (A431, 15 µM); 64% (HepG2, 0.222 µM); 89% (HepG2, 0.667 µM). The same sequence returned a target mRNA inhibition (HepG2, 2 µM) of 94% and a target mRNA inhibition (HepG2, 6 µM) of 92%.
For “TACACCACAAGCCAAAC (sugars e2 k2 d8 k2 e3, PS)”, the target mRNA inhibition (HepG2, 4 µM) is 56%.
Regarding “TACAGCTAGCAGGATAA (sugars e2 k2 d9 k2 e2, PS)”, the target mRNA inhibition reads like this: (HepG2, 0.1875 µM) 24%; (HepG2, 0.75 µM) 71%; (HepG2, 3 µM) 85%; (HepG2, 4 µM) 86%; (HepG2, 12 µM) 98%.
On to “TACAGGGTTTTTATTCA (sugars e2 k2 d8 k2 e3, PS)”, for which the target mRNA inhibition (HepG2, 5 µM) was 13%.
In turn, “TACAGGTCATTGAAACA (sugars e2 k2 d8 k2 e3, PS)” showed a target mRNA inhibition (HepG2, 5 µM) of 26%.
In turn, “TACAGGTCATTGAAACA (sugars e3 k2 d7 k2 e3, PS)” came in with a target mRNA inhibition (HepG2, 3 µM) of 9%.
As for “TACCCATCTGTGATTTA (sugars e2 k2 d8 k2 e3, PS)”, where the note is “HepG2, 5 µM”, the target mRNA inhibition is 29%.
Consider “TACCCATCTGTGATTTAAGT (sugars e5 d10 e5, PS)”, for which the target mRNA inhibition (HepG2, 5 µM) was determined as 50%.
“TACTTTCCTTCTGCTCG (sugars e3 k2 d7 k2 e3, PS)” came in with a target mRNA inhibition (HepG2, 3 µM) of 14%.
For “TAGACACATCGGCCACACCA (sugars e5 d10 e5, PS)”, the target mRNA inhibition (HepG2, 5 µM) was 46% and 36%.
For the sequence “TAGAGGATTAAAGTGAG (sugars e3 k2 d7 k2 e3, PS)”, the target mRNA inhibition (HepG2, 3 µM) was found to be 21%.
“TAGGCCAGACCTCCGCGCCT (sugars e5 d10 e5, PS)” displayed a target mRNA inhibition (HepG2, 4 µM) of 33%.
“TATTCACAGGCTTGAAT (sugars e2 k2 d8 k2 e3, PS)” gave a target mRNA inhibition (HepG2, 5 µM) of 24%.
“TATTCACAGGCTTGAAT (sugars e2 k2 d9 k2 e2, PS)” yielded a target mRNA inhibition (HepG2, 5 µM) of 11%.
As for “TATTCACAGGCTTGAAT (sugars e3 k2 d7 k2 e3, PS)”, the target mRNA inhibition (HepG2, 3 µM) was 0%.
For the setting “HepG2, 4 µM”, “TATTGGGCGATCCCAAT (sugars e2 k2 d8 k2 e3, PS)” gave a target mRNA inhibition of 19%.
On the same count and under the same terms, the figure for “TATTGGGCGATCCCAAT (sugars e2 k2 d9 k2 e2, PS)” is 6%.
In the case of “TCAGGATACATTTCTACAGC (sugars e5 d10 e5, PS)”, the target mRNA inhibition is 13% (HepG2, 0.1875 µM); 42% (HepG2, 0.75 µM); 75% (HepG2, 3 µM); 70% (HepG2, 5 µM); 92% (HepG2, 12 µM).
With “TCAGTTTCTCACTACAG (sugars e2 k2 d8 k2 e3, PS)”, where the note is “HepG2, 5 µM”, the target mRNA inhibition worked out at 25%.
“TCATAATAAGTGCCATACAG (sugars e5 d10 e5, PS)” yielded a target mRNA inhibition (HepG2, 5 µM) of 0%.
The sequence “TCATCTGCTTTTTCATG (sugars e3 k2 d7 k2 e3, PS)” yielded a target mRNA inhibition (HepG2, 3 µM) of 71%.
Still for that read-out and setting: the value for “TCATTGAAACAGACATT (sugars e3 k2 d7 k2 e3, PS)” was 10%.
In turn, “TCCAAGGGAATGTTTAT (sugars e2 k2 d8 k2 e3, PS)” gave a target mRNA inhibition (HepG2, 4 µM) of 27%.
For the sequence “TCCAAGGGAATGTTTAT (sugars e2 k2 d9 k2 e2, PS)”, the target mRNA inhibition (HepG2, 4 µM) is 57%.
Sequence “TCCAAGTGATCATAAAT (sugars e2 k2 d9 k2 e2, PS)” yielded a target mRNA inhibition (HepG2, 5 µM) of 39%.
“TCCTTTGGCCCACCGTG (sugars e3 k2 d7 k2 e3, PS)” showed a target mRNA inhibition (HepG2, 3 µM) of 39%.
